Measured values as given in patent US7229621B2, “Method to enhance the immunogenicity of an antigen” (Torrey Pines Institute for Molecular Studies, priority 1998, dated 2007).

Key:
[1] = tested on: Langerhans cells (immature dendritic cells); test: FITC screening assay: Langerhans/dendritic cell migration to draining inguinal lymph node after topical FITC in acetone plus migration inducer; type: in vivo, C57BL/6 mice; conditions: for Amt. Antigen/DC (mean fluorescence intensity of the dendritic cells) / Total DC (FITC+ plus FITC- dendritic cells per lymph node) / Antigen^+ DC (FITC+ MHC class II^Hi cells per lymph node): FITC 5 mg/ml in 50:50 acetone and test agent; for Amt. Antigen/DC (mean fluorescence intensity of the dendritic cells) / Total DC (FITC+ plus FITC- dendritic cells per lymph node): 48 hrs later; for Antigen^+ DC (FITC+ MHC class II^Hi cells per lymph node): inguinal lymph nodes 48 hrs later; for effect on FITC+ and total dendritic cell migration into the lymph node: topical FITC in acetone plus agent on shaved abdominal skin, 2 days after treatment (FIG. 1)
Source text: Fluorescein isothiocyanate (FITC) has been used extensively by the inventor and others, to characterize Langerhans cell migration. FITC is a small (389 Da) non-peptide, largely lipophilic molecule, capable of crossing the stratum corneum. The antigenicity of FITC is due to the reactivity of its isothiocyanate group (—N═C═S) with free amino groups, permitting it to be covalently bound to proteins and/or peptides. C57BL/6 mice received the following treatments: 1) none; 2) shaving of the abdominal skin only; or shaving of the abdominal skin followed by either 3) topical administration of FITC in acetone; 4) topical administration of FITC in acetone and olive oil; 5) topical administration of FITC in acetone and DMSO diluted in phosphate buffered saline (PBS); or 6) topical administration of FITC in acetone and dibutyl phthalate. The draining inguinal lymph nodes were then examined for immigrant dendritic cells by immunofluorescent flow cytometry each day thereafter. Migratory Langerhans cells were identified by the presence of FITC and co-expression of high MHC class II molecules or by co-expression of the DEC 205 ligand for the monoclonal antibody, NLDC-145. Dendritic cell residents of the lymph nodes could be differentiated by their high expression of MHC class II molecules but lack of FITC, or by their lack of FITC but co-expression of the ligand for the dendritic cell-specific monoclonal antibody, 33D1. The uptake of FITC and the Langerhans cell response to migratory signals were observable in the draining lymph node as early as six hours after topical administration. However, 48–72 hours was required for maximal immigration of FITC-bearing Langerhans cells into the lymph node. FIG. 1 illustrates the effect of various treatment regimens on the total and FITC+ dendritic cells 2 days after treatment. […] Thus, dibutyl phthalate was a very potent migration inducer.
Compounds which are useful as inducers of immature dendritic cell migration may be screened using the standard FITC methods described for the data presented in FIGS. 1—3. C57BL6 mice are shaved on their abdomens and painted with 100–200 μl of the test solution, containing 5 mg/ml FITC in a 50/50 (v/v) mixture of acetone and the migration inducer (e.g. dibutyl phthalate). After 2 days, the draining inguinal lymph nodes are removed and the total number of dendritic cells (both FITC+ and FITC−) is determined by flow cytometry and MHC class II immunofluorescence or other markers specific for dendritic cells.
The antigen employed was FITC and the procedure was identical to that used for the experiments depicted in FIG. 1. Namely, FITC at 5 mg/ml was dissolved in a 50:50 solution of acetone and the test agents for migration induction. The test agents used in this experiment were: dibutylfumarate (Agent #1); diisooctylmaleate (Agent #2); and dibutyl-D-tartarate (Agent #3). The inguinal lymph nodes were examined 48 hrs later for the presence of FITC+ and FITC-dendritic cells as detailed previously.
The antigen used was FITC, which was applied topically to the shaved abdominal skin of C57BL/6 mice at 5 mg/ml in a 50:50 solution of dibutyl phthalate and acetone. Each of the applications was identical, with half of the mice in each group receiving the first application only (none) and half receiving the first application followed by a second application at the specified interval (14 days or 21 days) after the first application. The inguinal lymph node cells were examined by flow cytometry for FITC+ dendritic cells, as detailed previously, 48 hrs after each treatment.

[2] = tested on: E.G7-OVA tumor cells; test: E.G7-OVA tumor growth after immunization with tumor antigen and migration inducer; type: in vivo, C57BL/6 mice; conditions: 50 μl of 1.25 mM OVA in HBSS injected, DBP in acetone topically an hour later; tumor inoculation one month later (FIG. 12)
Source text: The tumor cell, E.G7-OVA, is the C57BL/6 EL4 thymoma transfected with the complete gene for chicken ovalbumin (OVA). The transfected cell line expresses OVA protein, which is also processed naturally by E.G7-OVA cells into an eight amino acid peptide, OVA257-264, with the sequence […]. […] Based on the positive results using FITC, the inventors followed a similar protocol in an attempt to induce immunity to the E.G7-OVA tumor by topical administration of the well-characterized, synthetic […] tumor-associated peptide.
C57BL/6 mice were treated as follows: 1) shaving alone; 2) topical administration of acetone and dibutyl phthalate; 3) topical administration of […] (240 μg/ml) in DMSO diluted in PBS, followed in 5 hours by acetone and dibutyl phthalate; and 4) topical administration of […] (240 μg/ml) in acetone and dibutyl phthalate. All mice were subsequently injected subcutaneously with 5×10^5 E.G7-OVA cells (5-times the minimal tumorogenic dose). Tumor-specific immunity was monitored by measuring the size of the developing tumor.
The mucous membranes lack the tough barrier posed by the stratum corneum of the skin. […] The EL4 parent tumor cell line, lacking chicken ovalbumin, was used as a negative control; no immunity against the EL4 tumor cells was seen. Thus, the inventors' hypothesis regarding penetration of the stratum corneum was confirmed; the […] peptide was not effectively reaching the immature dendritic cells, known as Langerhans cells, underlying the stratum corneum.
To enhance the effectiveness of cutaneous topical administration of peptide, […] was dissolved in DMSO and applied to the skin without further dilution. Dibutyl phthalate in a 50:50 mixture with acetone was applied to the same site 5 hr later. All mice were subsequently injected subcutaneously with 5×10^5 E.G7-OVA cells. The results shown in FIG. 6 indicate that the peptide in concentrated DMSO was apparently able to traverse the stratum corneum, effectively gaining access to the epidermal Langerhans cells. […] Thus, the tumor-specific peptide, […], in concentrated DMSO, penetrated the stratum corneum in sufficient concentration to be incorporated into the MHC class I molecule K^b on epidermal Langerhans cells, and in the presence of the migration inducer, dibutyl phthalate, was effectively presented to CD8+ CTLs in the draining lymph nodes.
To confirm the immunogenicity of the disclosed treatment, groups of 10 C57BL/6 mice were injected with 50 μl of 1.25 mM OVA protein in HBSS, with HBSS alone, or with nothing. This was followed an hour later by topical application of DBP in acetone or with nothing. One month later, the mice were inoculated subcutaneously with 5×10^5 EL4 tumor cells or with 5×10^5 E.G7-OVA tumor cells and subsequent tumor growth was measured.

[3] = tested on: dendritic cells in draining lymph node; test: Antigen-bearing dendritic cells in lymph nodes after injection of soluble protein or peptide with or without topical migration inducer; type: in vivo, mice
Protocol: The injections were followed 2 hours later by topical application of dibutyl phthalate and acetone to the abdominal skin. The antigen-bearing dendritic cells that had migrated to the draining lymph node two days later were analyzed as described above and are shown in the upper right quadrant of each dot plot.
This was followed 2 hrs later by: A) no further treatment, or B) topical application of dibutyl phthalate and acetone to the abdominal skin. The antigen-bearing dendritic cells that had migrated to the draining lymph node two days later are shown in the upper right quadrant of each dot plot.
As stated previously, whether mature antigen-bearing dendritic cells will be encountered by and activate naive T cells in the lymph node is likely to depend not only on the number of antigen-bearing dendritic cells that enter the node, but also on the density of MHC:peptide complexes expressed on their membranes.

[4] = tested on: dendritic cells in draining lymph node; test: Antigen-bearing dendritic cells in lymph node after aqueous antigen applied to skin with DBP and acetone; type: in vivo; conditions: aqueous solution applied to the skin with topical DBP and acetone (data not shown)
Source text: Similarly, when an aqueous solution of a […] peptide or OVA protein antigen was applied to the skin along with topical application of the migration inducer, DBP and acetone, no detectable antigen-bearing (i.e., K^b:[…] positive) dendritic cells appeared in the draining lymph node (data not shown).

[5] = 1st treatment day 1, 2nd none, assay day 16
[6] = 1st treatment day 1, 2nd none, assay day 23
[7] = 1st treatment day 1, 2nd treatment day 14, assay day 16
[8] = 1st treatment day 1, 2nd treatment day 21, assay day 23
[9] = FITC 5 mg/ml in 50:50 dibutyl phthalate and acetone, 1st treatment day 1, 2nd none, assay day 2
[10] = 20 μl of 0.5 mM in HBSS injected, dibutyl phthalate and acetone 2 hours later, two days later

Q: What does the source list for `CC(C)CCCCCOC(=O)/C=C\C(=O)OCCCCCC(C)C` [Test Agent #2, diisooctylmaleate]?
A: Amt. Antigen/DC (mean fluorescence intensity of the dendritic cells) [1]: 1032 arbitrary units; Total DC (FITC+ plus FITC- dendritic cells per lymph node) [1]: 7,927 cells per lymph node; Antigen^+ DC (FITC+ MHC class II^Hi cells per lymph node) [1]: 5,340 cells per lymph node

Q: What does the source list for `CCCCOC(=O)[C@@H](O)[C@H](O)C(=O)OCCCC` [DBT, dibutyl-D-tartarate]?
A: Amt. Antigen/DC (mean fluorescence intensity of the dendritic cells) [1]: 364 arbitrary units; Total DC (FITC+ plus FITC- dendritic cells per lymph node) [1]: 29,050 cells per lymph node; Antigen^+ DC (FITC+ MHC class II^Hi cells per lymph node) [1]: 14,175 cells per lymph node

Q: Which “Antigen-bearing Dendritic Cells/Node” value [1, 5] does the source give for `CCCCOC(=O)c1ccccc1C(=O)OCCCC` [dibutyl phthalate] here?
A: The value was 1,776.

Q: And the “Cells per Lymph Node” value [1, 5]?
A: Its value is 4.52 × 10^6.

Q: What about the “Antigen-bearing Dendritic Cells/Node” value [1, 6] of the same molecule?
A: Its value is 0.

Q: What about the “Cells per Lymph Node” value [1, 6] of the same molecule?
A: The value was 3.87 × 10^6.

Q: What about the “Antigen-bearing Dendritic Cells/Node” value [1, 7] of the same molecule?
A: The value was 99,840.

Q: And the “Cells per Lymph Node” value [1, 7]?
A: Its value is 1.28 × 10^7.

Q: And the “Antigen-bearing Dendritic Cells/Node” value [1, 8]?
A: The value was 49,203.

Q: And the “Cells per Lymph Node” value [1, 8]?
A: The value was 6.93 × 10^6.

Q: What about the “Antigen-bearing Dendritic Cells/Node” value [1, 9] of the same molecule?
A: Its value is 64,220.

Q: What about the “Cells per Lymph Node” value [1, 9] of the same molecule?
A: Its value is 6.76 × 10^6.

Q: What about the “FITC+ Langerhans cells present in the lymph node” value ([1]; by 12 hours after FITC in acetone and dibutyl phthalate (FIG. 2)) of the same molecule?
A: Its value is “High numbers”.

Q: And the “increase of lymph node cell population over baseline levels” value ([1]; five days after topical FITC in acetone and dibutyl phthalate (FIG. 3))?
A: Its value is “approximately 7.2 fold”.

Q: What about the “effect on FITC+ and total dendritic cell migration into the lymph node” value [1] of the same molecule?
A: Its value is “striking effect”.

Q: Which “Amt. Antigen/DC (mean fluorescence intensity of the dendritic cells)” value [1] does the source give for `CCCCOC(=O)/C=C/C(=O)OCCCC` [Test Agent #1, dibutylfumarate] here?
A: Its value is 994 arbitrary units.

Q: What about the “Total DC (FITC+ plus FITC- dendritic cells per lymph node)” value [1] of the same molecule?
A: Its value is 10,088 cells per lymph node.

Q: What about the “Antigen^+ DC (FITC+ MHC class II^Hi cells per lymph node)” value [1] of the same molecule?
A: Its value is 4,242 cells per lymph node.

Q: `C[S+](C)[O-]` [DMSO, dimethylsulfoxide] was tested. Which “effect on FITC+ and total dendritic cell migration into the lymph node” value [1] did it give?
A: The value was “no enhancement”.

B1: OVA: Chicken ovalbumin, a 40 kDa protein used as prototypic experimental antigen (protein, UniProt P01012 2-386, looked up)
Ovalbumin: GSIGAASMEFCFDVFKELKVHHANENIFYCPIAIMSALAMVYLGAKDSTRTQINKVVRFDKLPGFGDSIEAQCGTSVNVHSSLRDILNQITKPNDVYSFSLASRLYAEERYPILPEYLQCVKELYRGGLEPINFQTAADQARELINSWVESQTNGIIRNVLQPSSVDSQTAMVLVNAIVFKGLWEKAFKDEDTQAMPFRVTEQESKPVQMMYQIGLFRVASMASEKMKILELPFASGTMSMLVLLPDEVSGLEQLESIINFEKLTEWTSSNVMEERKIKVYLPRMKMEEKYNLTSVLMAMGITDVFSSSANLSGISSAESLKISQAVHAAHAEINEAGREVVGSAEAGVDAASVSEEFRADHPFLFCIKHIATNAVLFFGRCVSP
Q: B1 was tested. Which “tumor protection against E.G7-OVA” value [2] did it give?
A: The value was “tumor protection”.

Q: And the “Total Cells per Lymph Node” value ([3]; 20 μl of 0.5 mM in HBSS injected at two sites in abdominal skin, dibutyl phthalate and acetone topically 2 hours later, two days later)?
A: The value was 8.8 × 10^6.

Q: And the “Dendritic Cells per Lymph Node” value [3, 10]?
A: Its value is 137,456.

Q: What about the “K^b:SIINFEKL^+ DC per LymphNode” value [3, 10] of the same molecule?
A: Its value is 61,424.

Q: And the Enhancement ([3]; K^b:SIINFEKL+ DC versus HBSS injection)?
A: The Enhancement was 31×.

Q: And the “increase in the number of antigen-bearing dendritic cells in the draining lymph nodes” value ([3]; injection followed by topical induction of migration, two days later)?
A: The value was 31 fold.

Q: What about the “antigen-bearing (K^b:SIINFEKL positive) dendritic cells in the draining lymph node” value [4] of the same molecule?
A: Its value is “no detectable”.
